Test results taken from patent publication US11840686B2, “Modulation of prekallikrein (PKK) expression” (Ionis Pharmaceuticals, Inc., priority 2013, dated 2023).
Strand notation (5' to 3'): a small letter for the sugar, then the base; units joined by * are phosphorothioate-linked, units joined directly phosphodiester-linked; [ ] holds rarer units or linkages, { } end groups; capitals alone tell only the bases. e = 2'-O-(2-methoxyethyl) (MOE); k = constrained ethyl (cEt); [5mC] = 5-methylcytosine; d = 2'-deoxy (DNA)

test system: human PKK mRNA; test: Antisense inhibition of human PKK mRNA in HepaRG cells, 1,000 nM, MOE/deoxy/cEt oligonucleotides (Example 3); format: cell-based; details: HepaRG cells, 1,000 nM antisense oligonucleotide, Table 29
How it was run: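 HepaRG cells at 20,000 per well electroporated with 1,000 nM 16-mer MOE/cEt/deoxy gapmers (phosphorothioate, 5-methylcytosine). After about 24 h, PKK mRNA measured by qRT-PCR with primer probe set RTS3454, normalized to RIBOGREEN total RNA. Reported as percent inhibition versus untreated cells.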

Row | Substance | % inhibition [%]
1 | 548578 (e[5mC]*eA*kT*dG*dG*d[5mC]*dT*dA*dT*dT*dG*d[5mC]*dT*kT*k[5mC]*e[5mC]; antisense) [compound 548578] | 73
2 | 548549 (antisense eT*eG*kT*dG*d[5mC]*dA*dA*dT*d[5mC]*dA*dG*dG*dT*kG*kG*eA) [compound 548549] | 56

same assay, conditions: HepaRG cells, electroporation with 1,000 nM antisense oligonucleotide, approx. 24 hours, PKK mRNA by RT-PCR (RTS3454), relative to untreated control cells; Table 25 experiment

Row | Substance | % inhibition [%]
3 | 548159 (e[5mC]*eG*k[5mC]*dA*dT*dT*dG*dT*d[5mC]*dA*dG*d[5mC]*d[5mC]*k[5mC]*k[5mC]*eT; antisense) [compound 548159] | 59
4 | 548199 (eG*e[5mC]*kA*d[5mC]*dT*dG*d[5mC]*dA*dG*dG*d[5mC]*dA*dA*kT*kA*eT; antisense) [compound 548199] | 24
5 | 548190 (eT*eA*kT*dT*d[5mC]*d[5mC]*dA*dT*dG*dA*dA*d[5mC]*dA*kT*k[5mC]*e[5mC]; antisense) [compound 548190] | 43
6 | 548194 (eG*e[5mC]*k[5mC]*dA*dA*d[5mC]*dA*dG*dT*dT*dT*d[5mC]*dA*kA*k[5mC]*eT; antisense) [compound 548194] | 61
7 | 548168 (eT*eT*kG*d[5mC]*dG*dA*d[5mC]*d[5mC]*dT*d[5mC]*dG*d[5mC]*dA*kT*kT*eG; antisense) [compound 548168] | 61

same assay, conditions: HepaRG cells, electroporation with 1,000 nM antisense oligonucleotide, approx. 24 hours, PKK mRNA by RT-PCR (RTS3454), relative to untreated control cells; Table 26 experiment

Row | Substance | % inhibition [%]
8 | 548273 (antisense eA*eA*kT*d[5mC]*dT*d[5mC]*d[5mC]*dA*d[5mC]*d[5mC]*d[5mC]*d[5mC]*d[5mC]*kG*kA*eA) [compound 548273] | 5
9 | 548276 (antisense e[5mC]*eA*kG*dA*dG*dT*dG*dT*d[5mC]*dA*dT*d[5mC]*dT*kG*k[5mC]*eG) [compound 548276] | 49

same assay, conditions: HepaRG cells, electroporation with 1,000 nM antisense oligonucleotide, approximately 24 hours, primer probe set RTS3454, relative to untreated control cells; experiment of Table 23

Row | Substance | % inhibition [%]
10 | 547987 (antisense eA*e[5mC]*kA*dG*d[5mC]*dG*dA*dA*dT*d[5mC]*dA*dT*d[5mC]*kT*kT*eT) [compound 547987] | 64
11 | 547966 (antisense eA*eG*kG*dG*dT*dT*d[5mC]*dA*dG*dG*dT*dA*dA*kA*kG*eT) [compound 547966] | 13

same assay, conditions: HepaRG cells, electroporation with 1,000 nM antisense oligonucleotide, approximately 24 hours, primer probe set RTS3454, relative to untreated control cells; experiment of Table 24

Row | Substance | % inhibition [%]
12 | 548050 (eA*eG*kG*d[5mC]*dG*dA*dT*dA*dT*d[5mC]*dA*dT*dG*kA*kT*eT; antisense) [compound 548050] | 37
13 | 548059 (eT*eA*kG*dG*d[5mC]*dA*dT*dA*dT*dT*dG*dG*dT*kT*kT*eT; antisense) [compound 548059] | 50

same assay, conditions: PKK mRNA, HepaRG cells, 1,000 nM antisense oligonucleotide; Table 31

Row | Substance | % inhibition [%]
14 | 548657 (antisense eA*eG*k[5mC]*dA*dG*dG*dG*dT*dA*dT*d[5mC]*dT*dT*k[5mC]*kA*e[5mC]) [compound 548657] | 26

same assay, conditions: Table 19; HepaRG cells, electroporation with 1,000 nM antisense oligonucleotide, approximately 24 hours; PKK mRNA by RT-PCR (RTS3454), relative to untreated control cells

Row | Substance | % inhibition [%]
15 | 548123 (antisense eA*eG*kA*d[5mC]*dT*d[5mC]*dT*dG*dG*dA*d[5mC]*dT*dG*k[5mC]*kT*eT) [compound 548123] | 49
16 | 548143 (e[5mC]*eA*k[5mC]*dT*d[5mC]*dT*d[5mC]*d[5mC]*dA*dT*dG*d[5mC]*dT*kT*kT*eG; antisense) [compound 548143] | 39

same assay, conditions: Table 20; HepaRG cells, electroporation with 1,000 nM antisense oligonucleotide, approximately 24 hours; PKK mRNA by RT-PCR (RTS3454), relative to untreated control cells

Row | Substance | % inhibition [%]
17 | 547899 (eG*eT*kA*d[5mC]*dT*dT*dT*dA*dA*dT*dA*dG*dG*k[5mC]*kA*eA; antisense) [compound 547899] | 49
18 | 547892 (e[5mC]*eA*kA*dT*dT*dG*dT*dT*d[5mC]*d[5mC]*dG*dG*dT*kA*k[5mC]*eT; antisense) [compound 547892] | 29
19 | 547882 (e[5mC]*eT*kG*dG*d[5mC]*dA*dG*d[5mC]*dG*dA*dA*dT*dG*kT*kT*eA; antisense) [compound 547882] | 91
20 | 547876 (antisense eA*e[5mC]*kA*d[5mC]*dT*dG*d[5mC]*dT*dA*dA*d[5mC]*d[5mC]*dT*kT*kA*eG) [compound 547876] | 78
21 | 547846 (antisense eT*e[5mC]*kG*dA*dT*dG*dG*d[5mC]*dA*dA*dG*d[5mC]*dA*k[5mC]*kT*eT) [compound 547846] | 0

same assay, conditions: Table 21 experiment; HepaRG cells, electroporation with 1,000 nM antisense oligonucleotide, approx. 24 hours; PKK mRNA by RT-PCR (RTS3454), relative to untreated control cells

Row | Substance | % inhibition [%]
22 | 547813 (eG*eG*kT*dG*dG*dA*dA*dT*dG*dT*dG*d[5mC]*dA*k[5mC]*k[5mC]*eT; antisense) [compound 547813] | 34
23 | 547837 (eT*eG*kT*d[5mC]*d[5mC]*dA*dG*dA*dA*dA*d[5mC]*dT*dG*k[5mC]*kA*e[5mC]; antisense) [compound 547837] | 51
24 | 547838 (e[5mC]*eT*kT*d[5mC]*dA*dA*dG*dG*dA*dA*dT*dG*dT*k[5mC]*k[5mC]*eA; antisense) [compound 547838] | 45
25 | 547831 (e[5mC]*eT*kG*d[5mC]*dA*d[5mC]*d[5mC]*dT*dG*dT*dT*d[5mC]*dG*kA*kT*eG; antisense) [compound 547831] | 49

same assay, conditions: Table 22 experiment; HepaRG cells, electroporation with 1,000 nM antisense oligonucleotide, approx. 24 hours; PKK mRNA by RT-PCR (RTS3454), relative to untreated control cells

Row | Substance | % inhibition [%]
26 | 547899 (eG*eT*kA*d[5mC]*dT*dT*dT*dA*dA*dT*dA*dG*dG*k[5mC]*kA*eA; antisense) [compound 547899] | 68
27 | 547892 (e[5mC]*eA*kA*dT*dT*dG*dT*dT*d[5mC]*d[5mC]*dG*dG*dT*kA*k[5mC]*eT; antisense) [compound 547892] | 28
28 | 547882 (e[5mC]*eT*kG*dG*d[5mC]*dA*dG*d[5mC]*dG*dA*dA*dT*dG*kT*kT*eA; antisense) [compound 547882] | 96
29 | 547876 (antisense eA*e[5mC]*kA*d[5mC]*dT*dG*d[5mC]*dT*dA*dA*d[5mC]*d[5mC]*dT*kT*kA*eG) [compound 547876] | 59
30 | 547846 (antisense eT*e[5mC]*kG*dA*dT*dG*dG*d[5mC]*dA*dA*dG*d[5mC]*dA*k[5mC]*kT*eT) [compound 547846] | 42

same assay, conditions: Table 27; HepaRG cells, 1,000 nM antisense oligonucleotide; human PKK mRNA

Row | Substance | % inhibition [%]
31 | 548353 (antisense e[5mC]*eT*kG*d[5mC]*dT*dG*dG*dT*dT*dG*dA*dG*dA*kA*kT*e[5mC]) [compound 548353] | 48
32 | 548329 (antisense eA*eG*k[5mC]*dA*dG*dA*dT*d[5mC]*dT*dG*dG*dG*dT*kT*kG*eT) [compound 548329] | 59
33 | 548364 (antisense eT*eG*kG*d[5mC]*dT*dA*dA*dG*dT*d[5mC]*dA*dG*dG*k[5mC]*k[5mC]*e[5mC]) [compound 548364] | 30
34 | 548346 (antisense eT*e[5mC]*k[5mC]*d[5mC]*d[5mC]*dA*dA*dT*dA*d[5mC]*dT*dT*dG*k[5mC]*kT*eG) [compound 548346] | 35
35 | 548336 (antisense eG*e[5mC]*kA*d[5mC]*dA*dT*dT*dA*dG*dG*dA*dG*dG*kT*kA*eG) [compound 548336] | 1
36 | 548344 (antisense eG*eG*k[5mC]*dA*dA*d[5mC]*dT*dA*dT*dG*dT*dT*d[5mC]*kT*k[5mC]*eA) [compound 548344] | 76

same assay, conditions: Table 28; HepaRG cells, 1,000 nM antisense oligonucleotide; human PKK mRNA

Row | Substance | % inhibition [%]
37 | 548528 (antisense eT*eG*k[5mC]*dA*dG*dT*dG*dG*dT*d[5mC]*dA*dA*dG*k[5mC]*kA*eT) [compound 548528] | 32
38 | 548473 (e[5mC]*e[5mC]*kA*dA*d[5mC]*d[5mC]*dT*dT*d[5mC]*d[5mC]*d[5mC]*dA*dA*kT*k[5mC]*eT; antisense) [compound 548473] | 0
39 | 548463 (eT*e[5mC]*kA*d[5mC]*dT*dG*dT*dA*d[5mC]*d[5mC]*dT*dA*dT*kA*kT*e[5mC]; antisense) [compound 548463] | 0
40 | 548498 (antisense e[5mC]*e[5mC]*kG*dA*dT*dA*dA*d[5mC]*dA*dG*dA*d[5mC]*d[5mC]*kG*kG*e[5mC]) [compound 548498] | 71
41 | 548532 (antisense eT*eA*kT*dT*dT*dA*dT*d[5mC]*d[5mC]*dG*dA*d[5mC]*d[5mC]*kT*k[5mC]*eT) [compound 548532] | 34
42 | 548476 (eG*e[5mC]*kA*dA*dA*dT*d[5mC]*d[5mC]*dT*dT*d[5mC]*d[5mC]*dA*kG*k[5mC]*eA; antisense) [compound 548476] | 27

same assay, conditions: Table 30; human PKK mRNA, HepaRG cells, 1,000 nM antisense oligonucleotide

Row | Substance | % inhibition [%]
43 | 548398 (eA*eT*kA*dG*dG*d[5mC]*dA*dA*dT*dT*dG*dT*dT*k[5mC]*k[5mC]*eT; antisense) [compound 548398] | 55
44 | 548403 (eG*eA*kG*dT*dA*d[5mC]*dA*dT*dT*dG*dG*dG*d[5mC]*k[5mC]*k[5mC]*eA; antisense) [compound 548403] | 25
